This passage reports Activity results from ChEMBL document CHEMBL1154206, “Bioactive iridoid glucosides from the fruit of Gardenia jasminoides” (J Nat Prod, 2009).

Calls of active or inactive are those of the source. The calls are words filed in the database; no cut-off is given here.

The assay concerns Drosophila. Nature of the assay: Short term memory enhancement in human Abeta42 transgenic Drosophila alzheimers disease model dosed for 6 days by pavlovian olfactory learning assay after 8 days. In kind it is functional, organism-based.
Consider `COC(=O)C1=CO[C@@H](O[C@@H]2O[C@H](CO)[C@@H](O)[C@H](O)[C@H]2O)[C@@H]2C(COC(=O)CCC(=O)O)=CC[C@H]12`, for which the result was Active.
The same measure for `COC(=O)C1=CO[C@@H](O[C@@H]2O[C@H](CO)[C@@H](O)[C@H](O)[C@H]2O)[C@@H]2C(COC(C)=O)=CC[C@H]12`: “Active”; for `COC(=O)C1=CO[C@@H](O[C@@H]2O[C@H](COC(=O)/C=C/c3ccc(O)cc3)[C@@H](O)[C@H](O)[C@H]2O)[C@@H]2C(CO)=CC[C@H]12`: “Active”; for `COC(=O)C1=CO[C@@H](O[C@@H]2O[C@H](COC(C)=O)[C@@H](O)[C@H](O)[C@H]2O)[C@@H]2C(CO)=CC[C@H]12`: “Active”.
For the compound `COC(=O)C1=CO[C@@H](O[C@@H]2O[C@H](COC(=O)/C=C/c3cc(OC)c(O)c(OC)c3)[C@@H](O)[C@H](O)[C@H]2O)[C@@H]2C(CO)=CC[C@H]12`, the outcome was Active.
For `COC(=O)C1=CO[C@@H](O[C@@H]2O[C@H](CO)[C@@H](O)[C@H](O)[C@H]2O)[C@@H]2C(CO)=CC[C@H]12`, the result was Active.
The same measure for `COc1cc(/C=C/C(=O)OC[C@H]2O[C@@H](OCC3=CC[C@H]4[C@@H]3COC(=O)[C@@H]4CO)[C@H](O)[C@@H](O)[C@@H]2O)cc(OC)c1O`: “Active”.
In the case of `COc1cc(/C=C/C(=O)OC[C@H]2O[C@@H](OC[C@H]3C(=O)OC[C@@H]4C(CO)=CC[C@@H]43)[C@H](O)[C@@H](O)[C@@H]2O)cc(OC)c1O` it was “Active”.
